Here are results for 8 compounds from patent publication EP1066315B1 (University of Dundee, priority 1998, dated 2008).

Entries after “also recorded” stand apart in the source; their conditions may differ. Non-standard residues stand in square brackets, D forms with d. Residues, ends and D or L forms follow the SMILES beside them. *: point of attachment. Sta = CC(C)C[C@H](N)[C@@H](O)CC(=O)O; Isovaleryl = CC(C)CC(=O)*

Series [1] addresses T1, disrupted lysosomes isolated from the human B cell line EDR (TTCF processing activity) (Homo sapiens, UniProt Q99538).
T1 construct: disrupted lysosomes isolated from the human B cell line EDR; endogenous in cells; host or cells: human B cell line EDR, Percoll-gradient lysosomal fraction, disrupted
T1 sequence (Q99538 26-323 limits assumed): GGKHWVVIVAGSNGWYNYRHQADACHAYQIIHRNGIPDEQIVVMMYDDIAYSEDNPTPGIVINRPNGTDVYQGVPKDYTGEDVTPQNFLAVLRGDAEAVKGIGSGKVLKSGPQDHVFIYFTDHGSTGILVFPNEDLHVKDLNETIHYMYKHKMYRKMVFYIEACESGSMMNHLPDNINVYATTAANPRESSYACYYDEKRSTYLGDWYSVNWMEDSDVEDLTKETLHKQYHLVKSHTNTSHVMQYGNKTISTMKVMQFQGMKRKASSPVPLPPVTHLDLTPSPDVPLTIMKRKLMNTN
Kind of series: Digestion of TTCF by disrupted B cell lysosomes, SDS-PAGE readout. The class given is biochemical. As to conditions: 4 hours at 37°C, Fig 1a; for inhibition of lysosomal digestion of TTCF: inhibitor at 0.1 mg/ml, pH 4.5. Here is the method: The invention will now be described by reference to the following Examples and Figures wherein • Figure 1: Processing of TTCF by a leupeptin-insensitive cysteine endopeptidase activity. (a) TTCF was digested in vitro in the presence of disrupted lysosomes (1-2 µg) in the presence or absence of iodoacetamide (1 mM), leupeptin, E64 or pepstatin (each at 0.1 mg/ml). Digestions were in 0.1 M NH4 acetate at pH 4.5 or Na2HPO4, pH 6.0 or 7.0. After 4 hours at 37°C, the reactions were separated by Tris-tricine SDS-PAGE and stained with Coomassie Blue. (b) Cleavage sites: TTCF digestion products were separated by SDS PAGE and electrophoretically transferred to nitrocellulose membrane. Individual fragments numbered 1-6 were subjected to 5 cycles of Edman degradation. N-terminal sequence obtained is shown in bold following upstream residues from TTCF (tetanus toxin numbering). The N-terminal sequence of His-tagged TTCF was obtained for fragments 1 and 3. (c) Residues Asn 1184 and Glu 1184 in TTCF were mutated to alanine (see Methods) and digestions performed as before. The mutation abolishes cleavage at the mutated site but not at the first site (doublet at 47 kD). In this experiment cleavage of the third site was minimal. • Figure 2: TTCF is processed by an asparaginyl endopeptidase. (a) Chromatography of the TTCF processing activity on Mono-S resin. Fractions eluted by NaCl gradient were incubated with the substrates Z-Ala-Ala-Asn-NHMec or Z-Phe-Arg-NHMec in the presence or absence of E64 (trans-epoxysuccinyl-L-leucylamido-(4-guanidino)butane). […] (b) Fractions as above were incubated with 10 µg TTCF in the presence or absence of E64 for 4 hours at 37°C prior to SDS-PAGE analysis. (c) Each fraction was analysed by SDS-PAGE and Western blotting. Electrophoretically transferred material was probed with an affinity purified antiserum raised against the peptide KGIGSGKVLKSGPQC from human legumain^1. • Figure 3: Peptide inhibitors of AEP block asparaginyl endopeptidase activity and TTCF processing in vitro and in vivo. (a) TTCF was digested with purified AEP (legumain from pig kidney) in the presence or absence of 0.2 mg/ml of the peptides indicated. […] (b) Purified AEP or a crude lysosomal protease mixture were incubated with Z-Ala-Ala-Asn-NHMec, Z-Phe-Arg-NHMec (cathepsins L&B) or Z-Val-Val-Ala NHMec (cathepsin S) in the presence of increasing concentrations of AENK or AEQK. Release of 7-amino-4-methyl coumarin was measured after 10, 20 or 30 minutes. […] At different times the cells were washed, fixed in 0.05 % glutaraldehyde and co-cultured with autologous TTCF specific T cell clones. […] Proteins obtained from commercial sources, as described in the literature or custom peptides were digested with purified pig kidney legumain at pH 5.5 in the presence of 1 mM DTT. […] When present peptide was maintained during antigen pulsing at 1 mg/ml (a) or 2 mg/ml (b). At different times the cells were washed, fixed in 0.05 % glutaraldehyde and antigen presentation measured using proliferation of different autologous TTCF-specific T cell clones. c, AEP pre-processing of TTCF speeds antigen presentation. […] Presentation was measured after 60 minutes of antigen pulsing using EBV B cells.
[…]. […] Nor could we reproduce the lysosomal TTCF digestion pattern or indeed generate any of these fragments using purified cathepsins L, S, B, D or E , all of which have been implicated in the class II MHC antigen processing pathway (reviewed in refs 5 & 6).
TTCF processing activity. Lysosomal fractions from the human B cell line EDR were prepared on 27 % Percoll density gradients as previously described^8 using ^125I-labelled transferrin (internalised for 30 minutes at 37°C) and β-hexosaminidase to identify endosomal/plasma membrane and lysosomal fractions respectively. The peak of lysosomes was collected by centrifugation at 40,000 g for 1 hour, removed from the underlying Percoll pellet, collected again at 50,000 g for 1 hour and stored frozen. […]

In series [2] the test system is Asparagine endopeptidase (AEP). Kind of series: AEP.
Series [3] can be described thus: Mono-S fractions of the partially purified TTCF processing activity from a crude B cell lysosome fraction. As to conditions: human, 37°C, up to 4 hours.
A further series concerns AEP. Put plainly: Purified AEP. As to conditions: up to 30 minutes.
A short description of series [4]: crude lysosomal protease mixture (B cell lysosomal fractions). The conditions noted are these: human, up to 30 minutes.
A short description of series [5]: B cell lysosomal fractions (crude lysosomal protease mixture). As to conditions: human, up to 30 minutes.

On to `NC(=O)CI` [iodoacetamide], for which the “sensitivity of lysosomal TTCF digestion activity to inhibitor” value in series [1] (iodoacetamide 1 mM) was “sensitive”.
As for `CC(=O)N[C@@H](CC(C)C)C(=O)N[C@@H](CC(C)C)C(=O)N[C@H](C=O)CCCNC(=N)N` [leupeptin, acetyl-leucyl-leucyl-arginal], in series [1], the “inhibition of lysosomal digestion of TTCF” value is reported as “could not inhibit; also recorded: completely resistant”.
As to `CC(C)CC(=O)N[C@H](C(=O)N[C@H](C(=O)N[C@@H](CC(C)C)[C@@H](O)CC(=O)N[C@@H](C)C(=O)N[C@@H](CC(C)C)[C@@H](O)CC(=O)O)C(C)C)C(C)C` [pepstatin] (Isovaleryl-VV[Sta]A[Sta]-OH), in series [1], the “inhibition of lysosomal digestion of TTCF” value is reported as “could not inhibit”.
In the case of QQQHLFGSN(CHO)VTDCSGNFCLFR, in series [2], the cleaved bond entry was “N637-F638”; the not cleaved entry is “fragments VTDCSGNFCLFR and QQQHLFGSN(CHO) not observed”.
Take QQQHLFGSNVTDCSGNFCLFRKKK: the cleaved bond result in series [2] is “N630-V631; also recorded: N637-F638”.
For the compound Z-Ala-Ala-Asn-7-(4-methyl)coumarylamide, the cleaved bond entry was “Asn-7-(4-methyl)coumarylamide” in series [3] and “Asn-NHMec, 10 minutes” in the series with AEP.
For Z-Phe-Arg-NHMec, the cleaved bond entry in series [4] and in series [5] was “Arg-NHMec” in each case.
For the compound Z-Val-Ala-Asn-NHMec, the cleaved bond entry in series [5] is reported as “Asn-NHMec”.
